Experimental findings from patent US20080161366A1, “AMINOALKYL SUBSTITUTED ARYL SULFAMIDE DERIVATIVES AND METHODS OF THEIR USE” (Wyeth, priority 2006, published 2008) are described below.

SMILES strings stand for the structures. Counter-ions that a name gives are not always drawn.

Chain of human norepinephrine transporter (hNET) (P23975 whole entry): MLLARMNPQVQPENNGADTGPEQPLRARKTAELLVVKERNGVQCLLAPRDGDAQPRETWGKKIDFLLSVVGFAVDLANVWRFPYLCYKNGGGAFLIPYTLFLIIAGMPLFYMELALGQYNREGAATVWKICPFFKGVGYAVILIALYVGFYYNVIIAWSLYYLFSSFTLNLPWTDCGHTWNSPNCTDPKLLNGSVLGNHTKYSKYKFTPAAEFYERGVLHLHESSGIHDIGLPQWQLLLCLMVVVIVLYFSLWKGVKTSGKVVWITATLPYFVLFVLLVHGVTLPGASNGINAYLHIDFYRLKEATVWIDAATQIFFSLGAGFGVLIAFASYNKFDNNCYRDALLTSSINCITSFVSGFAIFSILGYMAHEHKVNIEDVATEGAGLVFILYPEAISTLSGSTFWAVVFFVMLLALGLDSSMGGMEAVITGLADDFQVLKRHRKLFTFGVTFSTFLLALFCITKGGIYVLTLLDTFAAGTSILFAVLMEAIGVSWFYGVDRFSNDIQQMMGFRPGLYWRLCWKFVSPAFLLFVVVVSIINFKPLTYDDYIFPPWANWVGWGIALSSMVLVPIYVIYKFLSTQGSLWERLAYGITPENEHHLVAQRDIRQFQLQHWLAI

One assay concerns the target human norepinephrine transporter (hNET) (Homo sapiens, UniProt P23975). As to the kind of experiment: hNET uptake, Protocol B: cell based norepinephrine reuptake assay using recombinant hNET (MDCK-Net6 cells). Conditions: MDCK-Net6, read-out: NE uptake (Protocol B) % inhibition @ 6 uM.
Consider `O=S1(=O)N(CCCNCC(F)(F)F)c2ccccc2N1c1ccc(F)c(F)c1` [Example 111, 3-[3-(3,4-difluorophenyl)-2,2-dioxido-2,1,3-benzothiadiazol-1(3H)-yl]-N-(2,2,2-trifluoroethyl)propan-1-amine], for which the inhibition at 6 µM is 0%.

The assay is the same for the next values; noted with them: NE uptake (Protocol B) IC50 (nM), MDCK-Net6 cells, 3H-NE 16 nM.
For `CNCCCN1c2ccccc2N(c2ccc(C)cc2F)S1(=O)=O` [Example 108, 3-[3-(2-fluoro-4-methylphenyl)-2,2-dioxido-2,1,3-benzothiadiazol-1(3H)-yl]-N-methylpropan-1-amine], the half-inhibitory concentration (IC50) came out at 4 nM.

With `CNCCCN1c2ccccc2N(c2ccc(F)c(F)c2)S1(=O)=O` [Example 109, 3-[3-(3,4-difluorophenyl)-2,2-dioxido-2,1,3-benzothiadiazol-1(3H)-yl]-N-methylpropan-1-amine], the IC50 was found to be 20 nM.

For `CNCCCCN1c2ccccc2N(c2ccc(F)c(F)c2)S1(=O)=O` [Example 110, 4-[3-(3,4-difluorophenyl)-2,2-dioxido-2,1,3-benzothiadiazol-1(3H)-yl]-N-methylbutan-1-amine], the concentration for half-maximal inhibition (IC50) was found to be 39 nM.

Turning to `CCNCCCN1c2ccccc2N(c2ccc(F)c(F)c2F)S1(=O)=O` [Example 112, 3-[2,2-dioxido-3-(2,3,4-trifluorophenyl)-2,1,3-benzothiadiazol-1(3H)-yl]-N-ethylpropan-1-amine], the half-inhibitory concentration (IC50) is 2770 nM.

On to `CNCCCN1c2ccccc2N(c2ccc(F)c(F)c2F)S1(=O)=O` [Example 113, 3-[2,2-dioxido-3-(2,3,4-trifluorophenyl)-2,1,3-benzothiadiazol-1(3H)-yl]-N-methylpropan-1-amine], for which the IC50 came to 109 nM.

As for `CNCCCN1c2ccccc2N(c2ccc(F)cc2F)S1(=O)=O` [Example 114, 3-[3-(2,4-difluorophenyl)-2,2-dioxido-2,1,3-benzothiadiazol-1(3H)-yl]-N-methylpropan-1-amine hydrochloride], the concentration for half-maximal inhibition (IC50) worked out at 11 nM.

Regarding `CNCCCCCN1c2ccccc2N(c2ccc(F)cc2F)S1(=O)=O` [Example 115, 5-[3-(2,4-difluorophenyl)-2,2-dioxido-2,1,3-benzothiadiazol-1(3H)-yl]-N-methylpentan-1-amine hydrochloride], the IC50 came to 61 nM.

As for `CN(C)CCCCCN1c2ccccc2N(c2ccc(F)cc2F)S1(=O)=O` [Example 117, 5-[3-(2,4-difluorophenyl)-2,2-dioxido-2,1,3-benzothiadiazol-1(3H)-yl]-N,N-dimethylpentan-1-amine hydrochloride], the IC50 amounted to 7190 nM.

For the compound `CN(C)CCCN1c2ccccc2N(c2ccc(F)cc2F)S1(=O)=O` [Example 118, 3-[3-(2,4-difluorophenyl)-2,2-dioxido-2,1,3-benzothiadiazol-1(3H)-yl]-N,N-dimethylpropan-1-amine hydrochloride], the 50% inhibitory concentration (IC50) is 153 nM.

For `CCNCCCN1c2ccccc2N(c2ccc(F)cc2F)S1(=O)=O` [Example 119, 3-[3-(2,4-difluorophenyl)-2,2-dioxido-2,1,3-benzothiadiazol-1(3H)-yl]-N-ethylpropan-1-amine hydrochloride], the IC50 was determined as 77 nM.

As for `CN(C)CCCCN1c2ccccc2N(c2ccc(F)cc2F)S1(=O)=O` [Example 120, 4-[3-(2,4-difluorophenyl)-2,2-dioxido-2,1,3-benzothiadiazol-1(3H)-yl]-N,N-dimethylbutan-1-amine hydrochloride], the half-maximal inhibitory concentration (IC50) was 411 nM.

For the compound `CCNCCCCN1c2ccccc2N(c2ccc(F)cc2F)S1(=O)=O` [Example 121, 4-[3-(2,4-difluorophenyl)-2,2-dioxido-2,1,3-benzothiadiazol-1(3H)-yl]-N-ethylbutan-1-amine hydrochloride], the concentration for half-maximal inhibition (IC50) was 1500 nM.

Regarding `CCNCCCCN1c2ccccc2N(c2c(F)cccc2F)S1(=O)=O` [Example 122, 4-[3-(2,6-difluorophenyl)-2,2-dioxido-2,1,3-benzothiadiazol-1(3H)-yl]-N-ethylbutan-1-amine hydrochloride], the IC50 was 48 nM.

Take `CC(C)NCCCCN1c2ccccc2N(c2c(F)cccc2F)S1(=O)=O` [Example 123, 4-[3-(2,6-difluorophenyl)-2,2-dioxido-2,1,3-benzothiadiazol-1(3H)-yl]-N-isopropylbutan-1-amine hydrochloride]: the IC50 stood at 1170 nM.

Turning to `O=S1(=O)N(CCCCNC2CCC2)c2ccccc2N1c1c(F)cccc1F` [Example 124, N-{4-[3-(2,6-difluorophenyl)-2,2-dioxido-2,1,3-benzothiadiazol-1(3H)-yl]butyl}cyclobutanamine hydrochloride], the 50% inhibitory concentration (IC50) was found to be 132 nM.

For the compound `O=S1(=O)N(CCCCNC2CCCCC2)c2ccccc2N1c1c(F)cccc1F` [Example 125, N-{4-[3-(2,6-difluorophenyl)-2,2-dioxido-2,1,3-benzothiadiazol-1(3-yl]butyl}cyclohexanamine hydrochloride], the IC50 was determined as 440 nM.

Consider `CCNCCCN1c2ccccc2N(c2c(F)cccc2F)S1(=O)=O` [Example 126, 3-[3-(2,6-difluorophenyl)-2,2-dioxido-2,1,3-benzothiadiazol-1(3H)-yl]-N-ethylpropan-1-amine hydrochloride], for which the IC50 was found to be 15 nM.

On to `CC(C)NCCCN1c2ccccc2N(c2c(F)cccc2F)S1(=O)=O` [Example 127, 3-[3-(2,6-difluorophenyl)-2,2-dioxido-2,1,3-benzothiadiazol-1(3H)-yl]-N-isopropylpropan-1-amine hydrochloride], for which the IC50 was 148 nM.

`O=S1(=O)N(CCCNC2CCC2)c2ccccc2N1c1c(F)cccc1F` [Example 128, N-{3-[3-(2,6-difluorophenyl)-2,2-dioxido-2,1,3-benzothiadiazol-1(3H)-yl]propyl}cyclobutanamine hydrochloride]: the IC50 was determined as 222 nM.

As for `O=S1(=O)N(CCCNC2CCCC2)c2ccccc2N1c1c(F)cccc1F` [Example 129, N-{3-[3-(2,6-difluorophenyl)-2,2-dioxido-2,1,3-benzothiadiazol-1(3H)-yl]propyl}cyclopentanamine hydrochloride], the IC50 came out at 195 nM.

Turning to `O=S1(=O)N(CCCNC2CCCCC2)c2ccccc2N1c1c(F)cccc1F` [Example 130, N-{3-[3-(2,6-difluorophenyl)-2,2-dioxido-2,1,3-benzothiadiazol-1(3H)-yl]propyl}cyclohexanamine hydrochloride], the 50% inhibitory concentration (IC50) worked out at 224 nM.

Regarding `O=S1(=O)N(CCCNC2CCNCC2)c2ccccc2N1c1ccccc1F` [Example 131, N-{3-[3-(2-fluorophenyl)-2,2-dioxido-2,1,3-benzothiadiazol-1(3H)-yl]propyl}piperidin-4-amine dihydrochloride], the IC50 came to 365 nM.

Turning to `O=S1(=O)N(CCCNC2CCNCC2)c2ccccc2N1c1ccccc1` [Example 132, N-[3-(2,2-dioxido-3-phenyl-2,1,3-benzothiadiazol-1(3H)-yl)propyl]piperidin-4-amine dihydrochloride], the 50% inhibitory concentration (IC50) is 267 nM.

As to `O=S1(=O)N(CCNC2CCNCC2)c2ccccc2N1c1ccccc1F` [Example 133, N-{3-[3-(2-fluorophenyl)-2,2-dioxido-2,1,3-benzothiadiazol-1(3H)-yl]ethyl}piperidin-4-amine dihydrochloride], the IC50 stood at 45 nM.

Turning to `O=S1(=O)N(CCNC2CCNCC2)c2ccccc2N1c1ccccc1` [Example 134, N-[2-(2,2-dioxido-3-phenyl-2,1,3-benzothiadiazol-1(3H)-yl)ethyl]piperidin-4-amine dihydrochloride], the IC50 turned out to be 67 nM.

Broadly, the inhibition is the drop in the measured response relative to a control, in per cent. As usually defined, the IC50 is the concentration at which inhibition is half-maximal.
